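A five-concentration, 48-hour dose response in 96-well plates underlies each endpoint, interpolated linearly between surrounding concentrations. GI50 = concentration required for 50% inhibition of growth.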 The source made the active and inactive calls. No stated cut-off is given here; in the data, active = GI50 up to about 1.1 µM and inactive = higher.
Tests used:
Assay in all cases: NCI-60 cell line screen, 48 h
786-0 = system: 786-0
A498 = system: A498
A549 = system: A549
ACHN = system: ACHN
CAKI-1 = system: CAKI-1
CCRF-CEM = system: CCRF-CEM
COLO 205 = system: COLO 205
DLD-1 = system: DLD-1
DMS-114 = system: DMS-114
DMS-273 = system: DMS-273
EKVX = system: EKVX
HCC 2998 = system: HCC 2998
HCT-116 = system: HCT-116
HCT-15 = system: HCT-15
HL-60 = system: HL-60
HOP-18 = system: HOP-18
HOP-62 = system: HOP-62
HOP-92 = system: HOP-92
HT-29 = system: HT-29
IGROV-1 = system: IGROV-1
K562 = system: K562
KM-20L2 = system: KM-20L2
KM12 = system: KM12
LOX IMVI = system: LOX IMVI
LXFL 529 = system: LXFL 529
M14 = system: M14
M19-MEL = system: M19-MEL
MOLT-4 = system: MOLT-4
Malme-3M = system: Malme-3M
NCI-H226 = system: NCI-H226
NCI-H23 = system: NCI-H23
NCI-H460 = system: NCI-H460
NCI-H522 = system: NCI-H522
OVCAR-3 = system: OVCAR-3
OVCAR-4 = system: OVCAR-4
OVCAR-5 = system: OVCAR-5
OVCAR-8 = system: OVCAR-8
RPMI-8226 = system: RPMI-8226
RXF 393 = system: RXF 393
RXF 631 = system: RXF 631
SF-268 = system: SF-268
SF-295 = system: SF-295
SF-539 = system: SF-539
SK-MEL-28 = system: SK-MEL-28
SK-MEL-5 = system: SK-MEL-5
SK-OV-3 = system: SK-OV-3
SN12C = system: SN12C
SNB-19 = system: SNB-19
SNB-78 = system: SNB-78
SR = system: SR
SW-620 = system: SW-620
TK-10 = system: TK-10
U-251 = system: U-251
UACC-257 = system: UACC-257
UACC-62 = system: UACC-62
UO-31 = system: UO-31
XF498 = system: XF498
SNB-75 = system: SNB-75

Measured: GI50

Cc1cccc(C)c1NC(=O)C(=O)C1C(=O)NC(=O)NC1=O
> 100 µM: HCT-15
inactive: 786-0 > 100 µM | A498 > 100 µM | A549 > 100 µM | ACHN > 100 µM | CAKI-1 > 100 µM | CCRF-CEM > 100 µM | COLO 205 > 100 µM | DLD-1 > 100 µM | DMS-114 > 100 µM | DMS-273 > 100 µM | EKVX > 100 µM | HCC 2998 > 100 µM | HCT-116 > 100 µM | HL-60 > 100 µM | HOP-18 > 100 µM | HOP-62 > 100 µM | HOP-92 > 100 µM | HT-29 > 100 µM | IGROV-1 > 100 µM | K562 > 100 µM | KM-20L2 > 100 µM | KM12 > 100 µM | LOX IMVI > 100 µM | LXFL 529 > 100 µM | M14 > 100 µM | M19-MEL > 100 µM | MOLT-4 > 100 µM | Malme-3M > 100 µM | NCI-H226 > 100 µM | NCI-H23 > 100 µM | NCI-H460 > 100 µM | NCI-H522 > 100 µM | OVCAR-3 > 100 µM | OVCAR-4 > 100 µM | OVCAR-5 > 100 µM | OVCAR-8 > 100 µM | RPMI-8226 > 100 µM | RXF 393 > 100 µM | RXF 631 > 100 µM | SF-268 > 100 µM | SF-295 > 100 µM | SF-539 > 100 µM | SK-MEL-28 > 100 µM | SK-MEL-5 > 100 µM | SK-OV-3 > 100 µM | SN12C > 100 µM | SNB-19 > 100 µM | SNB-78 > 100 µM | SR > 100 µM | SW-620 > 100 µM | TK-10 > 100 µM | U-251 > 100 µM | UACC-257 > 100 µM | UACC-62 > 100 µM | UO-31 > 100 µM | XF498 > 100 µM

COc1cc(/C=C\c2ccncc2)cc(OC)c1OC
55.7 µM: HCT-15
inactive: 786-0 > 100 µM | A498 > 100 µM | A549 69 µM | ACHN > 100 µM | CAKI-1 80 µM | CCRF-CEM > 100 µM | COLO 205 42.1 µM | DLD-1 > 100 µM | DMS-114 57.3 µM | DMS-273 63.8 µM | EKVX 70.8 µM | HCT-116 99.1 µM | HL-60 24.1 µM | HOP-18 > 100 µM | HOP-62 > 100 µM | HOP-92 36.5 µM | HT-29 40.6 µM | IGROV-1 > 100 µM | K562 27.3 µM | KM-20L2 65.3 µM | KM12 48.1 µM | LOX IMVI 44.2 µM | LXFL 529 67.6 µM | M14 42.9 µM | MOLT-4 59.4 µM | Malme-3M > 100 µM | NCI-H226 > 100 µM | NCI-H460 46.6 µM | NCI-H522 43.3 µM | OVCAR-3 > 100 µM | OVCAR-4 > 100 µM | OVCAR-5 63.5 µM | OVCAR-8 > 100 µM | RPMI-8226 38.3 µM | RXF 393 > 100 µM | RXF 631 64.7 µM | SF-268 > 100 µM | SF-295 54.3 µM | SF-539 > 100 µM | SK-MEL-28 > 100 µM | SK-MEL-5 57.5 µM | SN12C > 100 µM | SNB-19 > 100 µM | SNB-75 37.8 µM | SNB-78 > 100 µM | SW-620 43.2 µM | TK-10 > 100 µM | U-251 > 100 µM | UACC-257 > 100 µM | UACC-62 59.2 µM | UO-31 72.3 µM | XF498 29.1 µM

From ChEMBL document CHEMBL1201862, “PubChem BioAssay data set” (2004)
